Measurements taken from US11267809B2, “BAF complex modulating compounds and methods of using the same” (THE BOARD OF TRUSTEES OF THE LELAND STANFORD JUNIOR …, priority 2017, dated 2022).

Legend:
[1] = tested on: HCT116 (ARID1A−/−) cell line; assay: Synergy viability assay, HCT116 ARID1A(-/-); assay type: cell-based, human
Text: SMARCA4, the primary target of our original screen, is present in both human BAF and PBAF complexes in cancer^12. PBAF complexes differ from BAF complexes by incorporation of specific subunits. Specifically, PBAF complexes contain ARID2 (as opposed to ARID1A/B), PHF10 (BAF45a) (as opposed to […] (BAF45d)), PBRM1, and lack the BAF-specific subunit SS18. PBAF specific subunits are also frequently mutated in cancer, specifically renal clear cell carcinomas and cholangiocarcinomas^33-36. To assess whether the lead compound is targeting BAF, PBAF complexes, or both, we constitutively knocked down ARID1A or ARID2 by lentiviral transduction of HCT116 cells and compared the BAFi/ATRi synergy to the wild-type (ARID1A+/+).
Isogenic HCT116 ARID1A(+/+) and ARID1A(−/−) cell lines were originally obtained from Horizon Discovery. MCF-7, Cal-51, A-704, and MDA-MB-436, MDA-MB-468, HCC1143, HCC1187, HCC1954, and ACHN cell lines were obtained from American Type […]. All cell lines were grown in McCoy's 5a Media supplemented with 10% FBS.
Viability assays were performed in 384-well plates. Cells were plated at 500 cells/well. Each drug was administered in 5-doses with 4 replicates per plate, and each 5×5 drug combination was administered with 8 replicates per plate, 24 hours after seeding. All error bars represent 4 or 8 technical replicates averaged over 3 independent experiments. Media containing fresh drug was replaced every 48 hours. After 5 days, cellular viability was measured using CellTitre blue, as described by the manufacturer.

MDA-MB-436 cells = assay: Synergy viability assay, MDA-MB-436; assay type: cell-based, human
Text: (§1) In ARID1A-deficient tumors, ATR inhibition is thought to trigger premature mitotic entry and chromosome instability that cannot be resolved, resulting in mitotic catastrophe^27. […] We sought to assess whether generic BAF inhibition might sensitize a host of cancers to ATR inhibition. We tested the efficacy of BAFi and ATRi on nine additional human cancer cell lines including seven Breast cancer cell lines (HCC1143, HCC1954, HCC1187, MDAMB-468, MDA-MB-436, Cal-51, MCF-7) and two renal clear cell carcinoma cell lines (A-704, and ACHN). Cal-51 and MCF-7 are both considered aggressive, highly mutated breast cancer cell lines with numerous COSMIC Census gene mutations (FIG. 10). HCC1143 and MDA-MB-468 are sporadic basal-likecancers, HCC1187 is a triple-negative breast cancer, and HCC1954 and MDA-MB-436 are BRCA1 mutant breast cancers which harbor single driver mutations. To assess synergy, each cell line was treated with 5 doses of VE-821 (1.25 uM-20 uM) and 5 doses of Baficillin1 (1.25 uM-20 uM), both independently and with all possible combinations. Like HCT-116 cells, Baficillin1 sensitized MCF-7 and Cal-51 cells lines to treatment with VE-821 (FIG. 6a).
(§2) Viability assays were performed in 384-well plates. Cells were plated at 500 cells/well. […] After 5 days, cellular viability was measured using CellTitre blue, as described by the manufacturer.

[2] = tested on: A-704 renal clear cell carcinoma cell line; assay: Synergy viability assay, A-704; assay type: cell-based, human; conditions: with VE-821, PBRM1 mutant line
Text: as §1, §2

Bmi1 expression = assay: Screen for increased expression of Bmi1 (BAF target) in mESCs; assay type: cell-based, mouse; conditions: mESC screen
Text: This synthetic lethal interaction has been attributed to the increased dependency of ARID1A-deficient cells on the ATR-mediated G2/M decatenation checkpoint following loss of ARID1A-mediated interactions of the BAF complex with TOP2A^7,27. Utilizing the knowledge that one of the BAF complex's diverse and essential functions involves repression of specific genes in embryonic stem cells^28, we developed a screening strategy to identify compounds that upregulate target genes repressed by the embryonic BAF complex (esBAF) in mESCs including Bmil, Ringl, and Fgf4 (FIG. 1b)^16,29. Given that the loss of ARID1A (a functionally critical, mechanistically elusive, and frequently mutated subunit of the BAF complex) sensitizes cancer cells to inhibition of the ATR kinase, we sought to identify whether our putative esBAF inhibitors (FIG. 1c) might phenocopy the loss of ARID1A in cancer cells and thereby synergize with ATR inhibitors.
We recently completed a large-scale screen to identify small molecules that result in increased expression of Bmi1, a known genetic target of BAF whose expression is increased about 6- to 12-fold upon deletion of the SMARCA4 ATPase subunit of the BAF complex^29. […]

CO[C@H]1CN(C)C(=O)c2cc(NC(=O)NC(C)C)ccc2OC[C@H](C)N(Cc2ccc(-c3ccccn3)cc2)C[C@@H]1C [Baficillin1]
sensitivity (cell survival) compared to wild-type HCT116 ([1]; single agent, 5 continuous days): slightly less sensitive
combination index (CI −/−) ([1]; with VE-821, 5 days): 1.44±0.12
sensitivity to Baficillin1 independently (MDA-MB-436 cells; single agent, BRCA1 mutant line): significantly more sensitive
combinatorial effects of BAFi/ATRi (MDA-MB-436 cells; with VE-821): strictly additive
combinatorial effects of BAFi/ATRi [2]: antagonism
activation of Bmi1 and other BAF targets (Bmi1 expression): robust activation
